Assay results taken from publication PMC12592139, “Quantitative assessment of the usability of electromechanical human-based modelling and simulation to replace Langendorff isolated rabbit heart experiments in the preclinical setting” (Frontiers in Pharmacology, 2025).
Like-named read-outs stand apart in the source and are kept apart here.

Key:
hERG channel = hERG channel (Homo sapiens, UniProt Q12809); assay: Automated patch-clamp (QPatch) on hERG channel
Description: (§1) The QPatch system (Sophion, Denmark) was used to investigate hERG, hNav1.5 and hKv4.3, and the SyncroPatch system (Nanion, Germany) was employed for hCav1.2. Recordings for all 37 compounds were performed at 21 °C.
(§2) When a Hill coefficient was not available, it was approximated as 1.

isolated rabbit heart = assay: Ex vivo rabbit whole-heart Langendorff experiments (QT, left ventricular pressure); conditions: 0.1µM
Description: Routine experimental measurements used in this study were retrieved from already existing datasets collected and curated by Sanofi, contributing to the 3R principles in animal experimentation: replacement, reduction and refinement. All the procedures described in the present study were performed in agreement with the European regulation (2010/63/EU) and under the approval and control of Sanofi’s ethics committee. […]
Hearts were spontaneously beating. […] The left ventricular pressure was evaluated using a pressure transducer within a saline-filled latex balloon inserted into the ventricular chamber. […] The electrocardiogram was recorded with two flexible electrodes gently pressed on the epicardium. The ECG parameters PQ, QRS, and QT durations were calculated using specific software (HEM-Notocord systems).
After stabilization, pressure was recorded with the vehicle for 15 min and used as a control period. […]
Baseline biomarker measurements were established in control conditions for both ex vivo experiments and in silico simulations, benchmarking compound results at each concentration against these respective controls. Percent variations of means for experiments and simulations were calculated. In the population, these variations were measured against each cell’s control, and the group mean is calculated.

hNCX1 = molecular target: T1, hNCX1 (Homo sapiens, UniProt P32418); assay: Cell-based calcium mobilization assay on CHO cell lines expressing NCX1; conditions: for IC50: Fluo4-AM
T1 construct: expressed in transfected cells; host or cells: CHO cell lines
Description: Furthermore, in vitro potency for 11 compounds was assessed on the NCX isoforms using a cell-based calcium mobilization assay on CHO cell lines expressing NCX1, NCX2 or NCX3. Measurements of intracellular calcium concentration employed a fluorescent imaging plate reader (Molecular Devices, United States) with the calcium-sensitive dye Fluo4-AM. Detailed methods are described in [Pelat et al. (2021)].

L-type calcium current = system: L-type calcium current; parameters: method as in Trovato et al., 2025; conditions: at EC50; ref Trovato et al., 2025; cited from earlier work
QTc = conditions: clinical, administered in isolation; ref El Kadri et al., 2022; Morrisette et al., 2020; cited from earlier work
late hNav1.5 = late hNav1.5 (Homo sapiens, UniProt Q14524); assay: Late hNav1.5 inhibition in vitro; format: cell-based
hNav1.5 = hNav1.5 (Homo sapiens, UniProt Q14524); assay: Automated patch-clamp (QPatch) on hNav1.5 (peak sodium current)
Description: as §1, §2

hCav1.2 = hCav1.2 (Homo sapiens, UniProt Q13936); assay: Automated patch-clamp (SyncroPatch) on hCav1.2
Description: as §1, §2

hKv4.3 = molecular target: T2, hKv4.3 (Homo sapiens, UniProt Q9UK17); assay: Automated patch-clamp (QPatch) on hKv4.3; format: cell-based
T2 construct: expressed in transfected cells
T2 sequence (Q9UK17 1-655): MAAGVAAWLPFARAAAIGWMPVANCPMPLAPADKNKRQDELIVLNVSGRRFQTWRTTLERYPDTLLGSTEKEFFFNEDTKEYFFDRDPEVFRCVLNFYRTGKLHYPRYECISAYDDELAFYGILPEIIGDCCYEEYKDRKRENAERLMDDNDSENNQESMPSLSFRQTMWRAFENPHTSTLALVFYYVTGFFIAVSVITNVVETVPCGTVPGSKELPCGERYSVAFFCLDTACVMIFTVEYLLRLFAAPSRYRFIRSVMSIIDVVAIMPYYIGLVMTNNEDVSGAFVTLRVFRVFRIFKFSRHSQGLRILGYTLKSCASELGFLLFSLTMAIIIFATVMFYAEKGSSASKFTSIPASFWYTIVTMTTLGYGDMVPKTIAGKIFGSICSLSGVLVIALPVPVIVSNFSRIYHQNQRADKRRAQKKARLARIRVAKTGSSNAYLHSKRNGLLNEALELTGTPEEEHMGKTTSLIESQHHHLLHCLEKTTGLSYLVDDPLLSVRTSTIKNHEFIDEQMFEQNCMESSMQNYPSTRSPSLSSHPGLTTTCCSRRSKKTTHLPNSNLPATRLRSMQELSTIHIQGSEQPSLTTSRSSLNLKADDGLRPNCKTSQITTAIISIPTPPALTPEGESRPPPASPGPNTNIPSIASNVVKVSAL
Description: Following the procedure in [Trovato et al. (2022)], we used automated patch-clamp platforms to study four ionic currents relevant to human repolarisation, as outlined by [Zhou et al. (2020)] as the minimum set of ion channels, marked by the CiPA Ion Channel Work Group, for reliable predictions of repolarisation abnormalities. […] The QPatch system (Sophion, Denmark) was used to investigate hERG, hNav1.5 and hKv4.3, and the SyncroPatch system (Nanion, Germany) was employed for hCav1.2. Recordings for all 37 compounds were performed at 21 °C.
as §2

[1] = CHO cells, calcium mobilization

hNav1.5, sequence (Q14524 whole entry): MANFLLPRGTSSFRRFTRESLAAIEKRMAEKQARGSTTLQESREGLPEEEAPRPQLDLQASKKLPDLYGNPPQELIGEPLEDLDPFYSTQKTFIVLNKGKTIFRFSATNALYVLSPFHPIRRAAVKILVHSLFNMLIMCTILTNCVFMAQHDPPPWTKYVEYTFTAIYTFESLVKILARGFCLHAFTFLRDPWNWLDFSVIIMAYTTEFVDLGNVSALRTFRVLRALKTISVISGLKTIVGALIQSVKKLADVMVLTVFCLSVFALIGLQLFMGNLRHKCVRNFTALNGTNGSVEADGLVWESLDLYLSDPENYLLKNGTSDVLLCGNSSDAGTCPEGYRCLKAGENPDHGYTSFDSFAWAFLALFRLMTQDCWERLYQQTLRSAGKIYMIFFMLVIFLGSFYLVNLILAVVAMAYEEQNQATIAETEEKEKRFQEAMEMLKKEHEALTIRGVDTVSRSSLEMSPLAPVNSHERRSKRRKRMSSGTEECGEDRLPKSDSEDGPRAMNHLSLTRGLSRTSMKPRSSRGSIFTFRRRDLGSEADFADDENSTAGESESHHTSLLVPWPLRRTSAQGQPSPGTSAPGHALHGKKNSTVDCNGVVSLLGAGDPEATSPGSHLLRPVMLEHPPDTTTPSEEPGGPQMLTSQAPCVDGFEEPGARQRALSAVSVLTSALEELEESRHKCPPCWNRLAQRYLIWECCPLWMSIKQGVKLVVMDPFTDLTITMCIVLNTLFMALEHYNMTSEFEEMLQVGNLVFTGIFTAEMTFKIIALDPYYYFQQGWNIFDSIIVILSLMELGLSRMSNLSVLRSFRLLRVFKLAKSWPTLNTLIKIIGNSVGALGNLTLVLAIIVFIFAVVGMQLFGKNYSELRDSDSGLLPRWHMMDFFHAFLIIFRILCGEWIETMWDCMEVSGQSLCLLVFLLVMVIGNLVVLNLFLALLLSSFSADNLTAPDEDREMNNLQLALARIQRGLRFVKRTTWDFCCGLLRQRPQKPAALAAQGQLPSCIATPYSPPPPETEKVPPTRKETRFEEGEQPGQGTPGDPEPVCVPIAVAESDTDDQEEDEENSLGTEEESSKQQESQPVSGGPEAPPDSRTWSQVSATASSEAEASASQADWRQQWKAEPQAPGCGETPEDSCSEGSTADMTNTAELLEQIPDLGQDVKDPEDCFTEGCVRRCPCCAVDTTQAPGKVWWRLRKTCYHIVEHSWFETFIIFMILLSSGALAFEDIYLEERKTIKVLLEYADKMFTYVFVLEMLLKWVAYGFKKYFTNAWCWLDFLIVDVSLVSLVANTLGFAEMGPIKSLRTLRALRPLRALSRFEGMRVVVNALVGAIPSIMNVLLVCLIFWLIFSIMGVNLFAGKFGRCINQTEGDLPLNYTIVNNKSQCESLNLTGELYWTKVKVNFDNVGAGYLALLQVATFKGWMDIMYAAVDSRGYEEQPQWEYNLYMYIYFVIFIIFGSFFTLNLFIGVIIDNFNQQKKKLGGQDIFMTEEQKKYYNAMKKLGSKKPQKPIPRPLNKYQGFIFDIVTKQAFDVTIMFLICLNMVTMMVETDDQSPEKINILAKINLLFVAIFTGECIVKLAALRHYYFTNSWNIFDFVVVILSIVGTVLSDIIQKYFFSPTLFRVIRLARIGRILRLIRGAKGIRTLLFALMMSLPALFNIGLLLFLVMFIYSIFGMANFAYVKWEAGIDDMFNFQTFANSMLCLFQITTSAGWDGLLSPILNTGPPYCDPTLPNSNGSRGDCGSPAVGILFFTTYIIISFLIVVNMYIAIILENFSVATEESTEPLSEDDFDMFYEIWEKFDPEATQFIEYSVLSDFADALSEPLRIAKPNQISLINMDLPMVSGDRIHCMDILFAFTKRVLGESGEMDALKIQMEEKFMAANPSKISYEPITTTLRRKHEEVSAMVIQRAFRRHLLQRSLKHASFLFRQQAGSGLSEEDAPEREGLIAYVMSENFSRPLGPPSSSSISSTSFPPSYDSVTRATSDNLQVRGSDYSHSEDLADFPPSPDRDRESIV
hERG channel, sequence (Q12809 whole entry): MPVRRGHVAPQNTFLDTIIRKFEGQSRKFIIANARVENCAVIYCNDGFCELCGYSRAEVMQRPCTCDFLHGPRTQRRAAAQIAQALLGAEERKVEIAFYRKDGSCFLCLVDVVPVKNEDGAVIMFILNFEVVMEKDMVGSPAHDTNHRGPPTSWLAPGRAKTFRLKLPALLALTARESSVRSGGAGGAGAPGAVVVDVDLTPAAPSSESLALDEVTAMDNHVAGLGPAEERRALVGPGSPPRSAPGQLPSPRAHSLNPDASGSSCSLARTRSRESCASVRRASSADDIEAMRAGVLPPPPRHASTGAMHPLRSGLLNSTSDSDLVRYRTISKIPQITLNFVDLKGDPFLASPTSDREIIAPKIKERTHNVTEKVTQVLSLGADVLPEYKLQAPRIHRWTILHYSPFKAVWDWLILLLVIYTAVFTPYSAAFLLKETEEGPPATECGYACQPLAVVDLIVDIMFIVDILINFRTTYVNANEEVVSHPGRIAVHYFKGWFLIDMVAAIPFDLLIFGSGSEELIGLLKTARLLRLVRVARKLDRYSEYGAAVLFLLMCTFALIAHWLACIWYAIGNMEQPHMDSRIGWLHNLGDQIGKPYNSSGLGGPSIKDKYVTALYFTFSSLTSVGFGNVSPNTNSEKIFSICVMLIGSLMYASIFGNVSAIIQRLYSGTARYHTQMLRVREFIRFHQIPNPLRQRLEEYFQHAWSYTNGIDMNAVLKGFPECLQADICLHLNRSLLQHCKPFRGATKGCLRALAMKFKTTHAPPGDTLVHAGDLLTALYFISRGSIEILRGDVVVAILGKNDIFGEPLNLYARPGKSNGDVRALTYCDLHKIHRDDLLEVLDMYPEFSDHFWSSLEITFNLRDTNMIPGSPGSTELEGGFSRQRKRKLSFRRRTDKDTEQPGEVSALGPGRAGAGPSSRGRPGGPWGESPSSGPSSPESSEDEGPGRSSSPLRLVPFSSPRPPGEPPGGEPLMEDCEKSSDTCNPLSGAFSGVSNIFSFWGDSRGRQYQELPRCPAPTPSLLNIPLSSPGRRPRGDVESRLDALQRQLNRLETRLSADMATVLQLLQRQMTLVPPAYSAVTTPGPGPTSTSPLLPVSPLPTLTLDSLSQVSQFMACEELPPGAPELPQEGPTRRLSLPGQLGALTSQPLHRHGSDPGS

Row | hNCX1 % block @ 30 µM (hNCX1) [%] | Structure (SMILES) | IC50 (hERG channel) [µM] | IC50 (hNav1.5) [µM] | IC50 (hCav1.2) [µM] | also measured
1 | 15.00 | CC(CCc1ccc(O)cc1)NCCc1ccc(O)c(O)c1 (centres unmarked) [Dobutamine] | 22.1 | – | – | increase in ventricular pressure (isolated rabbit heart): 17%; NCX inhibition (hNCX1): does not inhibit; increase of L-type calcium current (factor) (L-type calcium current): 1.22
2 | 14 | CCN(CCO)CCCC(C)Nc1ccnc2cc(Cl)ccc12 (centres unmarked) [SA1068, Hydroxychloroquine] | 7 | 90 | 7.6 | average increase in QTc (QTc): 11 ms; Late Nav1.5 % block @ 30 µM (late hNav1.5; 30 µM): 15%; IC50 (late hNav1.5; read-out: Late Nav1.5 IC50): > 30 µM; IC50 (hNCX1; [1]): > 30 µM
3 | – | [H]/N=C(\N/C(=N/[H])Nc1ccc(Cl)cc1)NC(C)C [SA1790, Paludrine] | > 30 | – | – | –
4 | – | CN(C)C(=O)C(CCN1CCC(O)(c2ccc(Cl)cc2)CC1)(c1ccccc1)c1ccccc1 [SA2089, Loperamide] | – | 2.1 | 3.9 | –
5 | – | COC(=O)N1CCN(Cc2cccc(NC(=O)Nc3ccc(C)nc3)c2F)CC1 [SA3064, Omecamtiv] | – | – | – | IC50 (hERG channel; read-out: hERG IC50, automated patch-clamp, 21 °C, IC50 not achieved taken at maximum concentration or estimated with Hill coefficient 1): 126 µM
6 | – | C=C(C)[C@@H]1CCC(C)=C[C@H]1c1c(O)cc(CCCCC)cc1O [SA5067, Cannabidiol] | 21.8 | 28.1 | 11.8 | IC50 (hKv4.3): 7.75 µM; hNCX1 nh (Hill coefficient) (hNCX1; [1]): nH 1.7; IC50 (hNCX1; [1]): 18.9 µM
7 | – | CN1CCN(C2=Nc3cc(Cl)ccc3Nc3ccccc32)CC1 [SA5332, Clozapine] | – | 23.2 | – | IC50 (hKv4.3; automated patch-clamp, 21 °C, IC50 not achieved taken at maximum concentration or estimated with Hill coefficient 1, read-out: Kv4.3 IC50): 61.7 µM
8 | – | C[C@@H]1OCC2(CCN(c3cnc(Sc4ccnc(N)c4Cl)c(N)n3)CC2)[C@@H]1N [SA6687, Batoprotafib] | 8 | – | – | –
9 | 17.00 | CN=C(N)NC(=O)Nc1c(C)cccc1C [SA9977, Lidamidine] | – | – | – | IC50 (hERG channel; human): > 30 µM

Row | Structure (SMILES) | hNCX1 % block @ 30 µM (hNCX1) [%] | IC50 (hERG channel) [µM] | IC50 (hNav1.5) [µM] | IC50 (hCav1.2) [µM] | also measured
10 | CCN(CC)CC(=O)Nc1c(C)cccc1C [SA5350, Lidocaine] | 6.00 | – | – | – | –
